Where a name gives a salt, the structure may show the parent alone.

The nature of one experiment: Inhibition of Endothelin-converting enzyme of guinea pig lung membrane.
For the molecule `CC(C)CC(CP(O)(O)=C(Cc1ccccc1)NC(=O)[C@H](CC(C)C)NC(=O)OCc1ccccc1)C(=O)N[C@@H](Cc1c[nH]c2ccccc12)C(=O)O` (stereo partly drawn) [(S)-2-(2-{[1-((S)-2-Benzyloxycarbonylamino-4-methyl-pentanoylamino)-2-phenyl-ethyl]-hydroxy-phosphinoylmethyl}-4-methyl-pentanoylamino)-3-(1H-indol-3-yl)-propionic acid; Disodium salt], it took 0.16 µM to reach half-maximal inhibition (IC50). Take `CC(C)CC(CP(O)(O)=C(Cc1ccc2ccccc2c1)NC(=O)[C@H](CCCCN)NS(C)(=O)=O)C(=O)N[C@@H](Cc1c[nH]c2ccccc12)C(=O)O` (stereo partly drawn) [(S)-2-(2-{[1-((S)-6-Amino-2-methanesulfonylamino-hexanoylamino)-2-naphthalen-2-yl-ethyl]-hydroxy-phosphinoylmethyl}-4-methyl-pentanoylamino)-3-(1H-indol-3-yl)-propionic acid; Disodium salt]: it took 0.065 µM to reach half-maximal inhibition (IC50).

Consider `CC(C)C(CP(O)(O)=C(Cc1ccccc1)NC(=O)[C@H](CCCCNC(=O)OCc1ccccc1)NS(C)(=O)=O)C(=O)N[C@@H](Cc1c[nH]c2ccccc12)C(=O)O` (stereo partly drawn) [(S)-2-(2-{[1-((S)-6-Benzyloxycarbonylamino-2-methanesulfonylamino-hexanoylamino)-2-phenyl-ethyl]-hydroxy-phosphinoylmethyl}-3-methyl-butyrylamino)-3-(1H-indol-3-yl)-propionic acid; Disodium salt], for which inhibition was half-maximal at 0.39 µM (IC50). This IC50 is about 6-fold higher than that of the molecule before.

Regarding `CC(C)CC(NC(=O)[C@H](CCCCNC(=O)OCc1ccccc1)NS(C)(=O)=O)=P(O)(O)CC(CC(C)C)C(=O)N[C@@H](Cc1c[nH]c2ccccc12)C(=O)O` (stereo partly drawn) [(S)-2-(2-{[1-((S)-6-Benzyloxycarbonylamino-2-methanesulfonylamino-hexanoylamino)-3-methyl-butyl]-hydroxy-phosphinoylmethyl}-4-methyl-pentanoylamino)-3-(1H-indol-3-yl)-propionic acid; Disodium salt], the IC50 – broadly, the concentration that gives 50% inhibition – turned out to be 0.04 µM.

`CC(C)C(CP(O)(O)=C(Cc1ccc2ccccc2c1)NC(=O)[C@H](CCCCNC(=O)OCc1ccccc1)NS(C)(=O)=O)C(=O)N[C@@H](Cc1c[nH]c2ccccc12)C(=O)O` (stereo partly drawn) [(S)-2-(2-{[1-((S)-6-Benzyloxycarbonylamino-2-methanesulfonylamino-hexanoylamino)-2-naphthalen-2-yl-ethyl]-hydroxy-phosphinoylmethyl}-3-methyl-butyrylamino)-3-(1H-indol-3-yl)-propionic acid; Disodium salt]: the IC50 came to 0.8 µM. Compared with the last molecule, the IC50 is about 20-fold higher.

Another experiment is described as follows: Compound was tested for inhibitory activity against Endothelin-converting enzyme isolated from guinea pig lung membrane.
On to `CC(C)CC(CP(O)(O)=C(Cc1ccc2ccccc2c1)NC(=O)OCc1ccccc1)C(=O)N[C@@H](Cc1c[nH]c2ccccc12)C(=O)O` (stereo partly drawn) [(S)-2-{2-[(1-Benzyloxycarbonylamino-2-naphthalen-2-yl-ethyl)-hydroxy-phosphinoylmethyl]-4-methyl-pentanoylamino}-3-(1H-indol-3-yl)-propionic acid; Disodium salt], for which the IC50 was determined as 3.3 µM.

These data come from BindingDB's records for doi:10.1016/0960-894X(96)00211-9 (1996).
